How the values were obtained:
[1] = tested on: melanocytes; experiment: Reduction of intra-cellular melanin; format: cell-based; conditions: AA-2G 2 mM for 48 hours
Experimental: • a) Culturing of melanocytes for 48 hours • b) Addition of AA-2G 2 mM for 48 hours • c) Lysis of the cells in order to read the quantity of melanin contained.

[2] = tested on: melanocytes; experiment: Inhibition of melanogenesis stimulated by theophylline; format: cell-based; conditions: AA-2G 2.5 mM for 12 hours; theophylline 0.5 mM
Experimental: • a) Culturing of melanocytes with AA-2G 2.5 mM+control without AA-2G for 12 hours • b) Stimulation of melanogenesis by theophylline (0.5 mM) • c) Detection of melanin by colorimetry (photos).

[3] = tested on: collagenase; experiment: Anti-collagenase activity on frozen sections, collagen stained with picro-sirius and image analysis; format: biochemical
Experimental: The anti-collagenase activity test was carried out on ds-es frozen sections. The products to be tested were mixed (volume/volume) with a collagenase solution at 60 U/ml. Incubation took place in a humid chamber for 2 h at 37° C. The remaining collagen was stained with picro-sirius and quantified by image analysis.
• 1. Control TRIS buffer • 2. Collagenase […] • 3. Reference R: phenanthroline • 4. Reference R: phenanthroline+collagenase 60 U/ml • 5. Product P2: Immortelle very precious cream ref 05.34.A • 6. Product P2: Immortelle very precious cream ref 05.34.A+collagenase 60 U/ml
For each sample, 4 microscopic fields were analysed as a function of the size of the sample. Each microscopic field is digitised and analysed according to the method described below using the LEICA QWIN software.
1. Digitised Image • Staining of the collagen network
2. Detection of the Collagen by Thresholding • Binary mask 0
3. Determination of the Zone of Interest • Exclusion of the epidermis and annexes • Inversion of the mask so as to retain only the zone corresponding to the dermis • Binary mask 2
4. Selection of Collagen in the Zone of Interest • Binary mask 3=2+0
5. Surface measurement Measurement of binary mask 3 • Measurement of binary mask 2
6. Results Exporting of results to Excel • Calculation of the percentage of surface area occupied by collagen in the dermis

[4] = tested on: keratinocytes; experiment: Stimulation of ATP synthesis, intracellular ATP content by bioluminescence; format: cell-based; conditions: 0.01%; incubation for 6 hours
Experimental: After incubation for 6 hours, the intracellular ATP content was measured by bioluminescence using the kit “ATP Monitoring Kit” (LABSYSTEMS) according to the manufacturer's instructions. The results were expressed in mM of ATP and as a percentage of the control group.
Effect of Sepitonic M3 and of cytochrome C on the ATP content of keratinocytes after incubation for 6 hours: […]

## O=C1O[C@H]([C@@H](O)CO)C(O)=C1O[C@H]1O[C@H](CO)[C@@H](O)[C@H](O)[C@H]1O [AA-2G, O-α-D-glucopyranosyl-(1→2)-L-ascorbic acid]
[1]
  reduction of intra-cellular melanin: 60%
[2]
  quantity of developed melanin versus untreated melanocytes (photos): lesser quantity of developed melanin

## c1cnc2c(c1)ccc1cccnc12 [phenanthroline]
[3]
  anti-collagenase activity, in words: completely inhibits the effect of collagenase
[3]; With collagenase (60 U/ml mixed volume/volume), 2 h at 37° C.
  percentage of surface area occupied by collagen in the dermis, Mean (typical variance): 90.4 (3.8) %
[3]; without collagenase
  histological examination of the collagen: well structured
  percentage of surface area occupied by collagen in the dermis, Mean (typical variance): 88.7 (1.5) %

## Cytochrome C: reference in the keratinocyte ATP test
[4]
  ATP content of keratinocytes, percentage of the control group (ES): ES 110%

Source: patent US20090269419A1, “COSMETIC COMPOSITION BASED ON POLYUNSATURATED FATTY ACIDS AND ITS USES” (priority 2006, published 2009)
